The values that follow come from patent US9376396B2, “Acylaminocycloalkyl compounds suitable for treating disorders that respond to modulation of dopamine D3 receptor” (AbbVie Deutschland GmbH & Co. KG, priority 2012, dated 2016).

Data set [1] can be described thus: Determination of the microsomal half-life / microsomal clearance, rat. The following applies: rat liver microsomes, 0.5 μM test substance, 0.25 mg microsomal protein/ml, NADPH, 37° C. The class given is in vitro ADME. The method, then:
(§1) The metabolic stability of the compounds of the invention was determined in the following assay.
(§2) The test substances were incubated in a concentration of 0.5 μM as follows:
(§3) 0.5 μM test substance are preincubated together with liver microsomes from different species (from rat, human or other species) (0.25 mg of microsomal protein/ml) in 0.05 M potassium phosphate buffer of pH 7.4 in microtiter plates at 37° C. for 5 min. The reaction is started by adding NADPH (1 mg/mL). After 0, 5, 10, 15, 20 and 30 min, 50 μl aliquots are removed, and the reaction is immediately stopped and cooled with the same volume of acetonitrile. The samples are frozen until analyzed. The remaining concentration of undegraded test substance is determined by MSMS. The half-life (T½) is determined from the gradient of the signal of test substance/unit time plot, it being possible to calculate the half-life of the test substance, assuming first order kinetics, from the decrease in the concentration of the compound with time. The microsomal clearance (mCl) is calculated from mCl=ln 2/T½/(content of microsomal protein in mg/ml)×1000 [ml/min/mg] (modified from references: Di, The Society for Biomoleculur Screening, 2003, 453-462; Obach, DMD, 1999 vol 27. N 11, 1350-1359).

Data set [2] has as its target T1, human dopamine D2L receptors (long isoform) (Homo sapiens, UniProt P14416).
T1 construct: expressed in transfected cells; host or cells: HEK-293
The data set can be described thus: Receptor binding study, dopamine D2L receptor ([125I]iodospiperone displacement), selectivity vs D3. The following applies: selectivity ratio, HEK-293 membranes. The method, then: (§4) The substance to be tested was either dissolved in methanol/Chremophor® (BASF SE) or in dimethyl sulfoxide and then diluted with water to the desired concentration.
(§5) Each assay mixture was run in triplicate. • The incubation buffer contained 50 mM tris, 120 mM NaCl, 5 mM KCl, 2 mM CaCl2, 2 mM MgCl2 and 0.1% bovine serum albumin, 10 μM quinolone and 0.1% ascorbic acid (prepared fresh daily). […] Each assay mixture was run in triplicate. • The incubation buffer contained 50 mM tris, 120 mM NaCl, 5 mM KCl, 2 mM CaCl2, 2 mM MgCl2 and 0.1% bovine serum albumin. The buffer was adjusted to pH 7.4 with HCl. c) Measurement and Analysis: • After having been incubated at 25° C. for 60 minutes, the assay mixtures were filtered through a Whatman GF/B glass fiber filter under vacuum using a cell collecting device. The filters were transferred to scintillation viols using a filter transfer system. After 4 ml of Ultima Gold® (Packard) have been added, the samples were shaken for one hour and the radioactivity was then counted in a Beta-Counter (Packard, Tricarb 2000 or 2200CA).

A further data set deals with T2, hERG cardiac K+ channel (Homo sapiens, UniProt Q12809).
T2 construct: expressed in transfected cells; host or cells: HEK-293
The data set can be described thus: Blocking the hERG channel ([3H]dofetilide displacement). The following applies: membrane homogenate from HEK 293 cells expressing hERG. The class given is binding. The method, then: The binding affinity of test drugs for the hERG cardiac K^+ channel was determined by their ability to displace tritiated dofetilide (a class III antiarrhythmic drug and potent hERG blocker) in membrane homogenates from HEK-293 cells heterogeneously expressing the hERG channel. The assay was performed as previously described G. J. Diaz et al., Journal of Pharmacological and Toxicological Methods, 50 (2004), 187-199). For this, drug dilutions were prepared from 10 mM DMSO stocks and the following were added to a 96-well polystyrene plate (Perkin-Elmer Optiplate): 20 μl of assay binding buffer (for total bounds), or 1 μM astemizole (for non-specific bounds), or test drug, 50 μl of [^3H]dofetilide (20 nM, ˜80 Ci/mmol specific activity), and 130 μl of membrane homogenate from HEK 293 cells stably transfected with hERG K^+ channels (final protein concentration of 30 μg per well). The plates were incubated at ambient temperature for 45 min, aspirated onto GF/B filter plates (Perkin-Elmer), and washed with 2 ml of cold wash buffer. After allowing the plates to dry, 50 μl of scintillant (Perkin-Elmer MicroScint 20) were added to each well and the radioactivity was counted in a Perkin-Elmer Topcount NXT scintillation counter. IC50 determinations were calculated from competition curves using 6 drug concentrations, half-log apart, starting at a high concentration of 100 μM (final assay DMSO concentration=1%) using a four-parameter logistic equation. The results are given as IC50 value.

The nature of data set [3]: Determination of the microsomal half-life / microsomal clearance, human. It counts as in vitro ADME. The following applies: human liver microsomes, 0.5 μM test substance, 0.25 mg microsomal protein/ml, NADPH, 37° C. The method, then:
as §1, §2, §3

In data set [4] the target is T3, human dopamine D3 receptors (Homo sapiens, UniProt P35462).
T3 construct: expressed in transfected cells; host or cells: HEK-293
The data set can be described thus: Receptor binding study, dopamine D3 receptor ([125I]-iodosulpride displacement). The conditions noted are these: membranes of HEK-293 cells, 0.1 nM [125I]-iodosulpride, 25° C., 60 minutes. The method, then: as §4, §5

T3 sequence (P35462 whole entry): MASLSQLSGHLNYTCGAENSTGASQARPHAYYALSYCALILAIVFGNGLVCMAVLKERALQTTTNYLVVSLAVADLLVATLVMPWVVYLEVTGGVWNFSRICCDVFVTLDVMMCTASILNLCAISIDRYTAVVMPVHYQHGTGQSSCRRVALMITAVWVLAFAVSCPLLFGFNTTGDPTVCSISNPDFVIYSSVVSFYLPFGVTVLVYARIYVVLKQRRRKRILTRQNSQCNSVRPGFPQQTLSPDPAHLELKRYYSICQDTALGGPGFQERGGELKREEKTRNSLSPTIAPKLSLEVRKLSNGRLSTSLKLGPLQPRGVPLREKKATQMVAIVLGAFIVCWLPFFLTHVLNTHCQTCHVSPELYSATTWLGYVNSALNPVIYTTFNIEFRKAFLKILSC
T2 sequence (Q12809 whole entry): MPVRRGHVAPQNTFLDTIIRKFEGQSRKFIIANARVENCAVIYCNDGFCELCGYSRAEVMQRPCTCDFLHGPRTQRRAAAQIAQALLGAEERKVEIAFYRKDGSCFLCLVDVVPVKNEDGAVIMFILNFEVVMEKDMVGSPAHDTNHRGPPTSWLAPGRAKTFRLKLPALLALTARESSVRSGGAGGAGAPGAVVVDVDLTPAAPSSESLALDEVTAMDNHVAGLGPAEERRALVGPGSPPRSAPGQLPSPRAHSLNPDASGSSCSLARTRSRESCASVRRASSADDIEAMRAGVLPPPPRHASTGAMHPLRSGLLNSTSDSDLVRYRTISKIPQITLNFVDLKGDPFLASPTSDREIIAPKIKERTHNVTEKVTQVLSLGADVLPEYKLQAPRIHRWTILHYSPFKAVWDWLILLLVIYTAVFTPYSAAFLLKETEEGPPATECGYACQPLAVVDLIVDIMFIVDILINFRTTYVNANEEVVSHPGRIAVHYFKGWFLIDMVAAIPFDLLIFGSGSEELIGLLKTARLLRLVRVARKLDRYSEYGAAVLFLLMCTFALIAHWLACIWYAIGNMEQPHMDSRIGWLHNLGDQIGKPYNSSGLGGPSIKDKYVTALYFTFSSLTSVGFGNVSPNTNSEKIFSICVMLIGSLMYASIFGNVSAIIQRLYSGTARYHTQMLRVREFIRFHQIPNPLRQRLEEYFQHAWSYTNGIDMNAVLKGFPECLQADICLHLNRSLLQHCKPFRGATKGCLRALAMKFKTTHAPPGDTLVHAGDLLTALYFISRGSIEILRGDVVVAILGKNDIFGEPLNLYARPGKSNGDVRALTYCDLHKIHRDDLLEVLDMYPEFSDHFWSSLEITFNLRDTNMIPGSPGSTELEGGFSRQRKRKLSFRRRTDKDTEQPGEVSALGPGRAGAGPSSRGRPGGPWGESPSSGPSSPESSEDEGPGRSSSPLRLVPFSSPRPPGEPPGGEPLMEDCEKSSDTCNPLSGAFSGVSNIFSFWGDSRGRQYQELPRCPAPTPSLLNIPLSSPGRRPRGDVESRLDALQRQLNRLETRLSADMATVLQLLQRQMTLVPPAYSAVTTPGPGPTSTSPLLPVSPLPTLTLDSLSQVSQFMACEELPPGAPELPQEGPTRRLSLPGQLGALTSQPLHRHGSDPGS
T1 sequence (P14416 whole entry, canonical isoform): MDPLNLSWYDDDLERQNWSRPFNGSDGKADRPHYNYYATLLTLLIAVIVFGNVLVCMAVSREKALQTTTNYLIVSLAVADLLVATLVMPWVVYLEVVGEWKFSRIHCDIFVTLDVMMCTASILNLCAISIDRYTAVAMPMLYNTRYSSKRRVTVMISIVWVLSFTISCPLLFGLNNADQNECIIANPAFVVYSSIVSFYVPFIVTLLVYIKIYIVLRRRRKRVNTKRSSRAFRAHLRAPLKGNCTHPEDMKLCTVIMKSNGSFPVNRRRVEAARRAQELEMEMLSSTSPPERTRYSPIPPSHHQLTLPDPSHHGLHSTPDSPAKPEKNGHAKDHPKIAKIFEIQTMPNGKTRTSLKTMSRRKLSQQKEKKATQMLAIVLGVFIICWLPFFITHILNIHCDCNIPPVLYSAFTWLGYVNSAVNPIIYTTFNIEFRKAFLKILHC

Consider `COCCc1cc(N2CCN(CC[C@H]3CC[C@H](NC(C)=O)CC3)[C@@H](C)C2)nc(C(C)(C)C)n1` [Compound 9, trans-N-[4-(2-{(2S)-4-[2-tert-Butyl-6-(2-methoxy-ethyl)-pyrimidin-4-yl]-2-methyl-piperazin-1-yl}-ethyl)-cyclohexyl]-acetamide], for which the “Rat mCl” value in data set [1] is recorded as “+ (+: 20-120 μl min^−1 mg^−1)”. Moreover, the “D2/D3 (Ki (D2L)/Ki (D3))” value in data set [2] is given as “+++ (+++>50)”. Also, the 50% inhibitory concentration (IC50) on hERG cardiac K+ channel was greater than 10000 nM. Also, the “Human mCl” value in data set [3] is given as “+ (+: 20-120 μl min^−1 mg^−1)”. This compound also yielded a Ki in data set [4] of less than 10 nM.
For the compound `COCCc1cc(N2CCN(CC[C@H]3CC[C@@H](NC(C)=O)CC3)[C@@H](C)C2)nc(C(C)(C)C)n1` [Compound 7, cis-N-[4-(2-{(2S)-4-[2-tert-Butyl-6-(2-methoxy-ethyl)-pyrimidin-4-yl]-2-methyl-piperazin-1-yl}-ethyl)-cyclohexyl]-acetamide], the “Rat mCl” value in data set [1] was “+ (+: 20-120 μl min^−1 mg^−1)”. For the same compound, the “D2/D3 (Ki (D2L)/Ki (D3))” value in data set [2] is listed as “+++ (+++>50)”. Also, the IC50 on hERG cardiac K+ channel was greater than 10000 nM. Further, the “Human mCl” value in data set [3] was “+ (+: 20-120 μl min^−1 mg^−1)”. The compound further had a Ki in data set [4] of less than 10 nM.
For the compound `COCCc1cc(N2CCN(CC[C@H]3CC[C@H](NC=O)CC3)CC2)nc(C(C)(C)C)n1` [Compound 11, trans-N-[4-(2-{4-[2-tert-Butyl-6-(2-methoxy-ethyl)-pyrimidin-4-yl]-piperazin-1-yl}-ethyl)-cyclohexyl]-formamide], in data set [1], the “Rat mCl” value is “+ (+: 20-120 μl min^−1 mg^−1)”. Further, in data set [2], the “D2/D3 (Ki (D2L)/Ki (D3))” value was “+++ (+++>50)”. This compound also displayed a 50% inhibitory concentration (IC50) on hERG cardiac K+ channel greater than 10000 nM. The “Human mCl” value in data set [3] is “+ (+: 20-120 μl min^−1 mg^−1)”. Besides, in data set [4], the Ki is less than 10 nM.
With `COCCc1cc(N2CCN(CC[C@H]3CC[C@H](NC(C)=O)CC3)C[C@H]2C)nc(C(C)(C)C)n1` [Compound 6, trans-N-[4-(2-{(3R)-4-[2-tert-Butyl-6-(2-methoxy-ethyl)-pyrimidin-4-yl]-3-methyl-piperazin-1-yl}-ethyl)-cyclohexyl]-acetamide], the “Rat mCl” value in data set [1] was “∘ (∘: >120 μl min^−1 mg^−1)”. The “D2/D3 (Ki (D2L)/Ki (D3))” value in data set [2] is given as “+++ (+++>50)”. The compound further showed a half-inhibitory concentration (IC50) on hERG cardiac K+ channel greater than 10000 nM. For the same compound, in data set [3], the “Human mCl” value is recorded as “+ (+: 20-120 μl min^−1 mg^−1)”. For the same compound, the inhibitory constant (Ki) in data set [4] was less than 10 nM.
`COCCc1cc(N2CCN(CC[C@H]3CC[C@H](NC(C)=O)CC3)CC2)nc(C(C)(C)C)n1` [Compound 1, trans-N-[4-(2-{4-[2-tert-Butyl-6-(2-methoxy-ethyl)-pyrimidin-4-yl]-piperazin-1-yl}-ethyl)-cyclohexyl]-acetamide]: the “Rat mCl” value in data set [1] was “+ (+: 20-120 μl min^−1 mg^−1)”. Further, the “D2/D3 (Ki (D2L)/Ki (D3))” value in data set [2] is “+++ (+++>50)”. In addition, at hERG cardiac K+ channel, the half-maximal inhibitory concentration (IC50) is greater than 10000 nM. Moreover, the “Human mCl” value in data set [3] is “+ (+: 20-120 μl min^−1 mg^−1)”. Also, in data set [4], the inhibitory constant (Ki) was less than 10 nM.
As to `CC(=O)N[C@H]1CC[C@H](CCN2CCN(c3cc(CCOC(F)F)nc(C(C)(C)C)n3)[C@@H](C)C2)CC1` [Compound 32, trans-N-[4-[2-[(3S)-4-[2-tert-butyl-6-[2-(difluoromethoxy)ethyl]pyrimidin-4-yl]-3-methyl-piperazin-1-yl]ethyl]cyclohexyl]acetamide], the “Rat mCl” value in data set [1] is recorded as “∘ (∘: >120 μl min^−1 mg^−1)”. In data set [2], the “D2/D3 (Ki (D2L)/Ki (D3))” value is listed as “+++ (+++>50)”. For the same compound, the “Human mCl” value in data set [3] is reported as “+ (+: 20-120 μl min^−1 mg^−1)”. This compound also came in with a Ki in data set [4] of less than 10 nM.
Take `COCCc1cc(N2CCN(CC[C@@H]3CC[C@H](NC(C)=O)C3)CC2)nc(C(C)(C)C)n1` [Compound 16, cis-N-[(1S,3S)-3-[2-[4-[2-tert-butyl-6-(2-methoxyethyl)pyrimidin-4-yl]piperazin-1-yl]ethyl]cyclopentyl]acetamide]: the “Rat mCl” value in data set [1] is reported as “+ (+: 20-120 μl min^−1 mg^−1)”. Further, the “D2/D3 (Ki (D2L)/Ki (D3))” value in data set [2] is listed as “+++ (+++>50)”. The “Human mCl” value in data set [3] is on record as “+ (+: 20-120 μl min^−1 mg^−1)”. For the same compound, the Ki in data set [4] was less than 50 nM.
